Data reported in patent US20080145858A1, “DETECTION AND IDENTIFICATION OF TOXICANTS BY MEASUREMENT OF GENE […]” (priority 2003, published 2008).

Test system: Xenopus laevis embryos (stage 8 and stage 15)
Test: Verification of microarray analysis by RT-PCR with biotinylated primers
Assay type: in vivo
Conditions: for expression of genes of ESTs PBX0135A08 and PBX013409: microarray and RT-PCR in agreement
From the text: Up-regulation of the clone Nos. PBX0135A08 and PBX0134E09 (underlined and shaded genes in Table 1, Panel A) were verified by RT-PCR of the genes. […] The DNA product obtained by RT-PCR using biotinylated primers of clone No. PBX0135A08 was separated by 1% agarose gel electophoresis and visualized by ethidium bromide staining (FIG. 3, Panel A). The DNA fragments were blotted to a nitrocellulose membrane and visualized by a streptavidin-horseradish peroxidase/ECL system (FIG. 3, Panel B). Though a single band for each reaction was visible in the ethidium bromide stained gel (FIG. 3, Panel A), multiple bands were obtained by the ECL system (FIG. 3, Panel B). When the biotin-labeled DNA in the gel was depurinated and denaturated by treatment with 0.25 M HCl followed by 1.5 M NaCl/0.56 N NaOH, the major 380 bp species were efficiently transferred and similar pattern to that observed using the ECL method was obtained (FIG. 3, Panel C). The effect was also observed with RT-PCR of clone No. PBX0134E09. mRNA levels of clones No. PBX0135A08 and No. PBX013409 increased after PMA treatment at stage 8 (Table 2).
In FIG. 3 the DNA products were obtained from 2 independent RT-PCR reactions using mRNA from untreated blastula stage 8 embryos (lanes 1 and 2), PMA-treated cleavage stage 8 embryos (lanes 3 and 4), untreated neurula stage 15 embryos (lanes 5 and 6), and PMA-treated neurula stage 15 embryos (lane 7 and 8). The 380 bp biotin-labeled DNA fragments were separated by gel electrophoresis on 1% agarose gel without further treatment (panel A and B) or following depurination and denaturation (panel C). In panel A, the DNA was detected by ultraviolet light following ethidium bromide staining. In panels B and C, the DNA was transferred to nitrocellulose membrane and detected by streptavidin-horseradish peroxidase ECL.

## CCCCCCCCCCCCCC(=O)O[C@@H]1[C@@H](C)[C@@]2(O)[C@@H](C=C(CO)C[C@]3(O)C(=O)C(C)=C[C@@H]23)[C@@H]2C(C)(C)[C@]12OC(C)=O [PMA, phorbol 12-myristate 12-acetate]
Cleavage embryos, stage 8
  expression of genes of ESTs PBX0135A08 and PBX013409: highly up-regulated
Embryos undergoing neurulation, stage 15
  expression of genes of ESTs PBX0135A08 and PBX013409: unaffected
Gene PBX0135A08, Stage 8
  % increase of mRNA expression by RT-PCR: 260% of control
Gene PBX0135A08, Stage 15
  % increase of mRNA expression by RT-PCR: no change
Gene PBX013409, Stage 8, not detected in control but strong band after PMA treatment
  % increase of mRNA expression by RT-PCR: highly induced^b
Gene PBX013409, Stage 15
  % increase of mRNA expression by RT-PCR: no change
